Experimental findings from ChEMBL document CHEMBL1130961, “The development of novel and selective p56lck tyrosine kinase inhibitors” (Bioorg Med Chem Lett, 1998) are described below.

Experiment [1] addresses Tyrosine-protein kinase Lck (Homo sapiens, UniProt P06239). The experiment can be described thus: Inhibition of p56 Lck tyrosine kinase.
Experiment [2] has as its target cAMP-dependent protein kinase (PKA) (Homo sapiens, UniProt P22694+P17612+P22612). Description: Inhibition of Protein Kinase A (PKA). The experiment is classed as protein assay.
Experiment [3] addresses Proto-oncogene tyrosine-protein kinase Src (Homo sapiens, UniProt P12931). Description: Inhibition of Src tyrosine kinase.

Proto-oncogene tyrosine-protein kinase Src, sequence (P12931 2-536 limits assumed): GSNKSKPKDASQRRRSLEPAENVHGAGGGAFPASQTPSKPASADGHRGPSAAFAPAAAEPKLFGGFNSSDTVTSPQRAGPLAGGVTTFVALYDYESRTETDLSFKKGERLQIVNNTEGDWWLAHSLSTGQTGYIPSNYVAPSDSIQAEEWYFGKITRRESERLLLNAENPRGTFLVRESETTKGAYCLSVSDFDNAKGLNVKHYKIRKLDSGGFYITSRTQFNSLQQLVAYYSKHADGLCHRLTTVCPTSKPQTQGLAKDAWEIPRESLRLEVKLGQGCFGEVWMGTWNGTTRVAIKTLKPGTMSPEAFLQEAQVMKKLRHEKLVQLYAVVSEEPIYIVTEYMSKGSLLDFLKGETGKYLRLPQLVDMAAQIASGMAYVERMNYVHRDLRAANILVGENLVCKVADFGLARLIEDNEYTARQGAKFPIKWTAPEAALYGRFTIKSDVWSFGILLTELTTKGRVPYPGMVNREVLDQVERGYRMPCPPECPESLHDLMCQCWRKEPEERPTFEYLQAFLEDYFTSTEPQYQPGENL
Tyrosine-protein kinase Lck, sequence (P06239 whole entry): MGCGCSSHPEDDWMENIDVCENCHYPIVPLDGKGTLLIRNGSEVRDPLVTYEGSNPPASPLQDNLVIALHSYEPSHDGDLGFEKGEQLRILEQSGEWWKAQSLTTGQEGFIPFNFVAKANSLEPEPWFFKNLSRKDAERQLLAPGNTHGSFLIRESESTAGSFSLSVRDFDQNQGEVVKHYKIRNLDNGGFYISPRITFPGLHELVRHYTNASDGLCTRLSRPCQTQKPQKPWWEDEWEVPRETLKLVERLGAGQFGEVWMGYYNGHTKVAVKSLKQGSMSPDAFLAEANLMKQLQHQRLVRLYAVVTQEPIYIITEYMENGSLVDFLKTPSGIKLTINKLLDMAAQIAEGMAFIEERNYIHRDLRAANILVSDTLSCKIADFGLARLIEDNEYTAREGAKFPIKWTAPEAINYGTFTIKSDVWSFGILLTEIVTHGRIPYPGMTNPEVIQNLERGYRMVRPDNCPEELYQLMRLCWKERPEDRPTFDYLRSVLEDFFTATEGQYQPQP

Turning to `COc1ccc2c(c1)C(=O)/C(=C/c1ccc(O)c(O)c1)C2=O`, the IC50 in experiment [1] worked out at 1500 nM.

`O=C1C(=Cc2ccc(O)c(O)c2)C(=O)c2ccccc21` returned an IC50 in experiment [1] of 5000 nM. Against the preceding molecule, the IC50 is about 3.3-fold higher. In turn, `Nc1cccc2c1C(=O)/C(=C\c1cc(Br)c(O)c(Br)c1)C2=O` came in with an IC50 in experiment [1] of 470 nM. Against the preceding molecule, the IC50 is about 11-fold lower. The same measure, in the same setting: for `COc1cc(/C=C2\C(=O)c3ccc(N)cc3C2=O)cc(OC)c1O` the value was 1700 nM. Still for that read-out and setting: for `O=C1/C(=C/c2ccc(O)c(O)c2)C(=O)c2c1cccc2[N+](=O)[O-]` the value was 5000 nM; for `Nc1ccc2c(c1)C/C(=C\c1cc(Br)c(O)c(Br)c1)C2=O`, 5000 nM. On to `Nc1ccc2c(c1)C(=O)/C(=C/c1cc(Cl)c(O)c(Cl)c1)C2=O`, for which the IC50 in experiment [2] was 5000 nM; in experiment [3], 3500 nM; in experiment [1], 102 nM.

`COc1cc2c(cc1OC)C(=O)C(=Cc1cc(Cl)c(O)c(Cl)c1)C2=O`: in experiment [1], the IC50 stood at 310 nM. Turning to `COc1cc2c(cc1OC)C(=O)C(=Cc1cc(Br)c(O)c(Br)c1)C2=O`, the IC50 in experiment [1] amounted to 110 nM. The same measure, in the same setting: under `O=C1/C(=C\c2cc(Br)c(O)c(Br)c2)C(=O)c2cc(Br)ccc21` stands 1000 nM; under `O=C1/C(=C/c2cc(Cl)c(O)c(Cl)c2)C(=O)c2c1cccc2[N+](=O)[O-]`, 1400 nM. In turn, `COc1cc(C=C2C(=O)c3cc(Cl)c(Cl)cc3C2=O)ccc1O` had an IC50 in experiment [1] of 5000 nM. Consider `COc1ccc2c(c1)C(=O)/C(=C/c1cc(Br)c(O)c(Br)c1)C2=O`, for which the values for the IC50 in experiment [2], in experiment [3] and in experiment [1] were 10000 nM, > 50000 nM and 144 nM, respectively. As for `O=C1C(=Cc2cc(Br)c(O)c(Br)c2)C(=O)c2ccccc21`, in experiment [1], the IC50 was found to be 740 nM. This lies in the sub-micromolar range. The same measure, in the same setting: under `COc1ccc2c(c1)C(=O)/C(=C/c1cc(Br)c(O)c(OC)c1)C2=O` stands 880 nM; under `O=C1/C(=C/c2ccc(O)c(O)c2)C(=O)c2cc([N+](=O)[O-])ccc21`, > 5000 nM.

Regarding `Nc1ccc2c(c1)C(=O)/C(=C/c1cc(Br)c(O)c(Br)c1)C2=O`, the IC50 in experiment [2] was found to be 8000 nM; in experiment [3], 460 nM; in experiment [1], 32 nM. Regarding `O=C1/C(=C\c2cc(Br)c(O)c(Br)c2)C(=O)c2cc([N+](=O)[O-])ccc21`, the IC50 in experiment [1] was > 5000 nM.

In experiment [1], `Nc1ccc2c(c1)C(=O)/C(=C/c1cc(Br)c(O)c(Br)c1)C2` showed an IC50 of 710 nM. In other words, the sub-micromolar range.

The molecule `COc1cc(C=C2C(=O)c3cc(Cl)c(Cl)cc3C2=O)cc(Br)c1O` registered an IC50 in experiment [1] of 1700 nM. Still for that read-out and setting: for `Nc1ccc2c(c1)C(=O)/C(=C/c1ccc(O)c(O)c1)C2=O` the value was 600 nM.

The term IC50 denotes the midpoint of a concentration-inhibition curve. Read a high IC50 as weaker potency in that assay.
